Data published in patent EP4755888A1 (ILAb Co., Ltd., priority 2023, dated 2025).

biological target: PD-1/PD-L1 (Homo sapiens, UniProt Q9NZQ7); test: TR-FRET PD-1/PD-L1 binding inhibition at the molecular level (free proteins); conditions: Tag1-PD-L1 and Tag2-PD-1 proteins, twelve concentrations from 200 nM, 2 hours at room temperature, read-out: FRET assay (IC50)
Procedure, shortened: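 HTRF read-out at 665/620 nm after 2 h at room temperature. Detection used anti-Tag1 Eu cryptate plus anti-Tag2 XL665 antibodies. Tagged PD-L1 and PD-1 proteins were pre-mixed with compound across twelve […] 1:2 dilutions starting at 200 nM.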

PD-1/PD-L1, sequence (Q9NZQ7 19-238 limits assumed): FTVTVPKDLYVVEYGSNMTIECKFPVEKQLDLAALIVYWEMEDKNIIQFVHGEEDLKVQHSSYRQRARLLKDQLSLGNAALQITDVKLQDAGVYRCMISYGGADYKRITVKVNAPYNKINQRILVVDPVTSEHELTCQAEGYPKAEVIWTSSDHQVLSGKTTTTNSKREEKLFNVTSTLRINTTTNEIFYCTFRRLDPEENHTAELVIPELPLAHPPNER

IC50 [nM]	SMILES
10 to 100	CC(C)(N[C@H]1CCCn2nc(C(=O)Nc3cccc(-c4cccc(Nc5nc(C(F)(F)F)nc6cccnc56)c4Cl)c3Cl)cc21)C(=O)O [Compound 275, (S)-2-((2-((2,2'-dichloro-3'-((2-(trifluoromethyl)pyrido[3,2-d]pyrimidin-4-yl)amino)-[1,1'-biphenyl]-3-yl)carbamoyl)-4,5,6,7-tetrahydropyrazolo[1,5-a]pyridin-4-yl)amino)-2-methylpropanoic acid]
10 to 100	Cc1c(NC(=O)c2cc3n(n2)CCCC3N2CC[C@@H](O)C2)cccc1-c1cccc(-c2nc3c(s2)CCN(C)C3)c1C (stereo partly drawn) [Compound 154, N-(2,2'-dimethyl-3'-(5-methyl-4,5,6,7-tetrahydrothiazolo[4,5-c]pyridin-2-yl)-[1,1'-biphenyl]-3-yl)-4-((R)-3-hydroxypyrrolidin-1-yl)-4,5,6,7-tetrahydropyrazolo[1,5-a]pyridine-2-carboxamide]
< 10	Cc1c(NC(=O)c2cc3n(n2)CCN(CCO)C3)cccc1-c1cccc(Nc2nc(C(F)F)nc3cc(CN4CC[C@@H](O)C4)cnc23)c1C [Compound 327, (R)-N-(3'-((2-(difluoromethyl)-7-((3-hydroxypyrrolidin-1-yl)methyl)pyrido[3,2-d]pyrimidin-4-yl)amino)-2,2'-dimethyl-[1,1'-biphenyl]-3-yl)-5-(2-hydroxyethyl)-4,5,6,7-tetrahydropyrazolo[1,5-a]pyrazine-2-carboxamide]
10 to 100	Cc1nc(Nc2cccc(-c3cccc(NC(=O)c4cc5n(n4)CCC[C@H]5N4CCC(C(=O)O)CC4)c3Cl)c2Cl)c2ncccc2n1 [Compound 255, (R)-1-(2-((2,2'-dichloro-3'-((2-methylpyrido[3,2-d]pyrimidin-4-yl)amino)-[1,1'-biphenyl]-3-yl)carbamoyl)-4,5,6,7-tetrahydropyrazolo[1,5-a]pyridin-4-yl)piperidine-4-carboxylic acid]
10 to 100	O=C(Nc1cccc(-c2cccc(Nc3nc(C(F)(F)F)nc4cccnc34)c2Cl)c1Cl)c1cc2n(n1)CCC[C@@H]2N1CC(C(=O)O)C1 [Compound 277, (S)-1-(2-((2,2'-dichloro-3'-((2-(trifluoromethyl)pyrido[3,2-d]pyrimidin-4-yl)amino)-[1,1'-biphenyl]-3-yl)carbamoyl)-4,5,6,7-tetrahydropyrazolo[1,5-a]pyridin-4-yl)azetidine-3-carboxylic acid]
< 10	O=C(Nc1cccc(-c2cccc(NC(=O)c3cc4n(n3)CCC[C@H]4N3CC[C@@H](O)C3)c2Cl)c1Cl)c1ccc(CNCCO)cn1 [Compound 244, (R)-N-(2,2'-dichloro-3'-(5-(((2-hydroxyethyl)amino)methyl)picolinamido)-[1,1'-biphenyl]-3-yl)-4-((R)-3-hydroxypyrrolidin-1-yl)-4,5,6,7-tetrahydropyrazolo[1,5-a]pyridine-2-carboxamide]
< 10	Cc1c(NC(=O)c2cc3n(n2)CCCC3N2CC[C@@H](C(=O)O)C2)cccc1-c1cccc(Nc2nc(C(F)F)nc3cc(CN4CC[C@@H](O)C4)cnc23)c1C (stereo partly drawn) [Compound 133, (3R)-1-(2-((3'-((2-(difluoromethyl)-7-(((R)-3-hydroxypyrrolidin-1-yl)methyl)pyrido[3,2-d]pyrimidin-4-yl)amino)-2,2'-dimethyl-[1,1'-biphenyl]-3-yl)carbamoyl)-4,5,6,7-tetrahydropyrazolo[1,5-a]pyridin-4-yl)pyrrolidine-3-carboxylic acid]
10 to 100	CC(C)(N[C@H]1CCCn2nc(C(=O)Nc3cccc(-c4cccc(Nc5nccc6nccnc56)c4Cl)c3Cl)cc21)C(=O)O [Compound 260, (S)-2-((2-((2,2'-dichloro-3'-(pyrido[3,4-b]pyrazin-5-ylamino)-[1,1'-biphenyl]-3-yl)carbamoyl)-4,5,6,7-tetrahydropyrazolo[1,5-a]pyridin-4-yl)amino)-2-methylpropanoic acid]

More lines, now with the values behind:

SMILES	IC50 [nM]
O=C(Nc1cccc(-c2cccc(NC(=O)c3cc4n(n3)CCCC4N3CCC(O)CC3)c2Cl)c1Cl)c1ccc(CNCCO)cn1 (centres unmarked) [Compound 87, N-(2,2'-dichloro-3'-(5-(((2-hydroxyethyl)amino)methyl)picolinamido)-[1,1'-biphenyl]-3-yl)-4-(4-hydroxypiperidin-1-yl)-4,5,6,7-tetrahydropyrazolo[1,5-a]pyridine-2-carboxamide]	10 to 100
CC(=O)NCCNC1CCCn2nc(C(=O)Nc3cccc(-c4cccc(NC(=O)c5ccc(CN6CC[C@@H](O)C6)cn5)c4C)c3C)cc21 (stereo partly drawn) [Compound 94, 4-((2-acetamidoethyl)amino)-N-(3'-(5-(((R)-3-hydroxypyrrolidin-1-yl)methyl)picolinamido)-2,2'-dimethyl-[1,1'-biphenyl]-3-yl)-4,5,6,7-tetrahydropyrazolo[1,5-a]pyridine-2-carboxamide]	< 10
Cc1c(NC(=O)c2cc3n(n2)CCCC3NC[C@@H]2CCC(=O)N2)cccc1-c1cccc(Nc2nccc3cc(CN4CC[C@@H](O)C4)cnc23)c1C (stereo partly drawn) [Compound 15, N-(3'-((3-(((R)-3-hydroxypyrrolidin-1-yl)methyl)-1,7-naphthyridin-8-yl)amino)-2,2'-dimethyl-[1,1'-biphenyl]-3-yl)-4-((((S)-5-oxopyrrolidin-2-yl)methyl)amino)-4,5,6,7-tetrahydropyrazolo[1,5-a]pyridine-2-carboxamide]	< 10
Cc1c(NC(=O)c2cc3n(n2)CCCC3NCCO)cccc1-c1cccc(NC(=O)c2nc3c(n2C)CCN(CCC24CCC(C(=O)O)(CC2)C4)C3)c1C (centres unmarked) [Compound 48, 4-(2-(2-((3'-(4-((2-hydroxyethyl)amino)-4,5,6,7-tetrahydropyrazolo[1,5-a]pyridine-2-carboxamido)-2,2'-dimethyl-[1,1'-biphenyl]-3-yl)carbamoyl)-1-methyl-6,7-dihydro-1H-imidazo[4,5-c]pyridin-5(4H)-yl)ethyl)bicyclo[2.2.1]heptane-1-carboxylic acid]	< 10
CN[C@@H]1CCCn2nc(C(=O)Nc3cccc(-c4cccc(Nc5nc(C(F)(F)F)nc6cc(CN7CC[C@@H](O)C7)cnc56)c4Cl)c3Cl)cc21 [Compound 353, (R)-N-(2,2'-dichloro-3'-((7-(((R)-3-hydroxypyrrolidin-1-yl)methyl)-2-(trifluoromethyl)pyrido[3,2-d]pyrimidin-4-yl)amino)-[1,1'-biphenyl]-3-yl)-4-(methylamino)-4,5,6,7-tetrahydropyrazolo[1,5-a]pyridine-2-carboxamide]	10 to 100
Cc1c(NC(=O)c2cc3n(n2)CCCC3O)cccc1-c1cccc(NC(=O)c2nc3c(n2C)CCN(CCC24CCC(C(=O)O)(CC2)C4)C3)c1C (centres unmarked) [Compound 45, 4-(2-(2-((3'-(4-hydroxy-4,5,6,7-tetrahydropyrazolo[1,5-a]pyridine-2-carboxamido)-2,2'-dimethyl-[1,1'-biphenyl]-3-yl)carbamoyl)-1-methyl-6,7-dihydro-1H-imidazo[4,5-c]pyridin-5(4H)-yl)ethyl)bicyclo[2.2.1]heptane-1-carboxylic acid]	< 10
Cc1c(NC(=O)c2cc3n(n2)CCCC3NCC(=O)O)cccc1-c1cccc(NC(=O)c2nc3c(n2C)CCN(CCC24CCC(C(=O)O)(CC2)C4)C3)c1C (centres unmarked) [Compound 50, 4-(2-(2-((3'-(4-((carboxymethyl)amino)-4,5,6,7-tetrahydropyrazolo[1,5-a]pyridine-2-carboxamido)-2,2'-dimethyl-[1,1'-biphenyl]-3-yl)carbamoyl)-1-methyl-6,7-dihydro-1H-imidazo[4,5-c]pyridin-5(4H)-yl)ethyl)bicyclo[2.2.1]heptane-1-carboxylic acid]	< 10
O=C(O)CN[C@H]1CCCn2nc(C(=O)Nc3cccc(-c4cccc(Nc5nc(C(F)F)nc6cc(CN7CC[C@@H](O)C7)cnc56)c4Cl)c3Cl)cc21 [Compound 293, 2-(((S)-2-((2,2'-dichloro-3'-((2-(difluoromethyl)-7-(((R)-3-hydroxypyrrolidin-1-yl)methyl)pyrido[3,2-d]pyrimidin-4-yl)amino)-[1,1'-biphenyl]-3-yl)carbamoyl)-4,5,6,7-tetrahydropyrazolo[1,5-a]pyridin-4-yl)amino)acetic acid]	10 to 100
Cc1c(NC(=O)c2cc3n(n2)CCCC3N2CC[C@@H](O)C2)cccc1-c1cccc(NC(=O)c2nc3c(s2)CN(C)CC3)c1C (stereo partly drawn) [Compound 150, N-(3'-(4-((R)-3-hydroxypyrrolidin-1-yl)-4,5,6,7-tetrahydropyrazolo[1,5-a]pyridine-2-carboxamido)-2,2'-dimethyl-[1,1'-biphenyl]-3-yl)-5-methyl-4,5,6,7-tetrahydrothiazolo[5,4-c]pyridine-2-carboxamide]	< 10
Cn1c(C(=O)Nc2cccc(-c3cccc(NC(=O)c4cc5n(n4)CCCC5NCCO)c3Cl)c2Cl)nc2c1CCN(CCC13CCC(C(=O)O)(CC1)C3)C2 (centres unmarked) [Compound 53, 4-(2-(2-((2,2'-dichloro-3'-(4-((2-hydroxyethyl)amino)-4,5,6,7-tetrahydropyrazolo[1,5-a]pyridine-2-carboxamido)-[1,1'-biphenyl]-3-yl)carbamoyl)-1-methyl-6,7-dihydro-1H-imidazo[4,5-c]pyridin-5(4H)-yl)ethyl)bicyclo[2.2.1]heptane-1-carboxylic acid]	< 10
O=C(O)CNC1CCCn2nc(C(=O)Nc3cccc(-c4cccc(Nc5nccc6cc(CN7CC[C@@H](O)C7)cnc56)c4Cl)c3Cl)cc21 (stereo partly drawn) [Compound 26, 2-((2-((2,2'-dichloro-3'-((3-(((R)-3-hydroxypyrrolidin-1-yl)methyl)-1,7-naphthyridin-8-yl)amino)-[1,1'-biphenyl]-3-yl)carbamoyl)-4,5,6,7-tetrahydropyrazolo[1,5-a]pyridin-4-yl)amino)acetic acid]	< 10
O=C(Nc1cccc(-c2cccc(Nc3nccc4cc(CN5CC[C@@H](O)C5)cnc34)c2Cl)c1Cl)c1cc2n(n1)CCCC2N1CC[C@@H](C(=O)O)C1 (stereo partly drawn) [Compound 228, (3R)-1-(2-((2,2'-dichloro-3'-((3-(((R)-3-hydroxypyrrolidin-1-yl)methyl)-1,7-naphthyridin-8-yl)amino)-[1,1'-biphenyl]-3-yl)carbamoyl)-4,5,6,7-tetrahydropyrazolo[1,5-a]pyridin-4-yl)pyrrolidine-3-carboxylic acid]	10 to 100
